In patent US4073938A, “19,20-Bis-nor-prostenoic acids as hypolipemic compounds” (Istituto Biochimico Italiano di Loredana Lorenzini S.a.s., priority 1974, dated 1978):
Where a name gives a salt, the structure may show the parent alone.

What was measured:
[1] = test system: ulcer induced by phenylbutazone; test: Anti-ulcerous activity, ulcer from phenylbutazone (9-hydroxy sodium salt); type: in vivo, Female rats of the Wistar stock
Description: (§1) Also in this case the anti-ulcerous activity is tested on an ulcer induced by aspirin and by phenylbutazone. In both cases lesions of various sizes are formed in the glandular section of the stomach.
Female rats of the Wistar stock weighing 170 ± 180 g are again involved. The animals are held in constant ambient conditions for at least 2 weeks before the start of the test. 24 hours before the start of the test the animals are made to fast, while they are allowed water at will.
Each test group consists of 10 animals. The substance in question is administered a first time 15 minutes before administration of phenylbutazone (200 mg/kg × 1 ml in 0.5% tragacanth gum solution orally), and a second time 21/2 hours after. The doses of the substance in question amount to 2.5, 10, 50, 100, 200 and respectively 400 mg/kg × 2 ml of 0.5% tragacanth gum solution, orally.
5 hours after the administration of phenylbutazone the animals are killed, the stomachs are extracted, fixed and with the aid of a stereomicroscope magnifying 8 times a point count evaluation is carried out. The lesions of the gastric mucosa are expressed in % of the stomach surface.

[2] = Triglycerides and cholesterol in rats on Nath diet, 25 and 50 mg/kg endoperitoneal; type: in vivo, male Sprague-Dawley rats; conditions: 1 week
Description: Treatment with 25 and 50 mg/kg/die endoperitoneal for 1 week on male
Sprague-Dawley rats of 150 gr.

ulcer induced by aspirin = test: Anti-ulcerous activity, ulcer from aspirin (9-hydroxy sodium salt); type: in vivo, Female rats of the Wistar stock; conditions: for Ulcer scale (x ± Sx): controls 18.67 ± 3.11
Description: as §1
Female rats of the Wistar stock weighing 150-175 g are used. 24 hours before the start of the test the animals are made to fast, while they are allowed water at will.
Each test group consists of 12 animals. The aspirin is administered orally as a suspension (45 mg/ml of 0.5% carboxymethyl cellulose suspension, 1 ml per animal). The substance in question is administered 10 minutes before the administration of aspirin, and 21/2 hours after, each time in doses of […] of 100 mg/kg × 10 ml of distilled water. The animals are killed 5 hours after the administration of aspirin, the stomachs are extracted and with a stereomicroscope the number and size of the lesions is evaluated.

[3] = Coagulation test (Time of Quick, Time of Howel); type: in vivo, Male Sprague-Dawley rats; conditions: 200 mg/kg endoperitoneal, 2 hours before
Description: c. Coagulation test: minutes/10 ± E.S.
Coagulation test (Repetition): minutes/100 ± E.S.
(§2) Treatment with the dose of 200 mg/kg endoperitoneal, 2 hours before the test.
Male Sprague-Dawley rate 150 gr.

[4] = test system: smooth musculature (trachea of guinea-pig, fundal end stomach of rat, uterus of rat, portal vein of rat); test: General pharmacology: prostaglandino-similar activity on smooth muscle preparations; conditions: 100 μg/ml
Description: The compound C83 has been tested pharmacologically in order to show a probable prostaglandino-similar activity.
The compound C83 has been studied on the above parameters:
1. Trachea of guinea-pig.
2. Strips of fundal end stomach of rat.
5. Cardiovascular effects.
This compound has been tested at the concentration of 100 μg/ml in all preparations above mentioned.

[5] = Triglyceridemia and cholesterolemia in rats given alcohol 10%; type: in vivo, Male Sprague-Dawley rats; conditions: 1 week endoperitoneal once daily (CPIB, BBA 200 mg/kg; C83 50 mg/kg)
Description: | Treatment for 1 week CPIB - BBA - 200 mg/kg endoperitoneal; C83 | 50mg/kg endoperitoneal; only one daily administration. | Male Sprague-Dawley rats 150 gr. | Groups of 6 rats.

[6] = Triglycerides and cholesterol in rats on Nath diet, endoperitoneal or by mouth; type: in vivo, male Sprague-Dawley rats; conditions: 1 week
Description: Treatment with 25 mg/kg/die for 1 week on male Sprague-Dawley rats of 150

Glycemia test at fast = type: in vivo, Male Sprague-Dawley rats; conditions: 200 mg/kg endoperitoneal, 2 hours before the test
Description: b. Glycemia test at fast: mg/100 ml blood in toto ± E.S.
Glycemia test at fast (Repetition): mg/100 ml blood in toto ± E.S.
as §2
Male Sprague-Dawley rats 150 grs.

[7] = LD50 by mouth in the mouse; type: in vivo; conditions: in vivo, po
Description: (§3) a. LD50 by mouth in the mouse about 3000 mg/kg
(§4) 25 gr of XVI are dissolved in 400 ml of water with NaOH 15% to pH 9, filtered and lyophilized : 24 gr of sodium salt of XVI as a white solid are obtained, humidity (K. Fisher) 2.08%, no U.V. absorption, equivalent weight found 301.7, I.R. bands at 3400, 1765, 1565, 1460, 1420, 1378 cm^-1.
(§5) After 20 hours at 20°, the solvent is evaporated in vacuo, the residue is dissolved in 1300 ml of water treated with 120 ml of acetic acid, extracted with chloroform. After solvent evaporation, 65.1 gr of the compound XVIII are obtained, as an oil, I.R. bands at 3420, 3100, 1710 cm^-1. 35 gr of the compound XVIII are dissolved in 600 ml of water with NaOH to pH 9. The solution is filtered and lyophilized: 35.5 gr of sodium salt of 9-hydroxy-19,20-bis-nor-prostanoic acid are obtained, as white solid, humidity (K.Fisher) 1.73%, no U.V. absorption, equivalent weight found 320, I.R. bands at 3400, 3300, 1565, 1460, 1390 cm^-1, LD50 by mouth in mice about 3000 mg/kg.

mouse = test: LD50 by mouth in the mouse; type: in vivo
Description: as §3, §4, §5

With `CCCCCCC1CCC(O)C1CCCCCCC(=O)O` (stereo not drawn) [Compound C83, 9-hydroxy-19,20-bis-nor-prostanoic acid sodium salt] the “correlation between dose and inhibition of ulcer surface area (in words)” value ([1]; FIG. 1) was “highly significant correlation between the dose and the inhibition of the surface area of the ulcer”, the ED50 ([1]; Rattus norvegicus, po, orally, calculated from the regression lines, read-out: DE 50 (inhibition of the surface area of the ulcer)) was 37 mg/kg and the “Surface area of the ulcer in % with respect to surface area of the stomach (x ± Sx)” value (from here on “Surface area of the ulcer in %”) ([1]; orally, 2 × 2.5 mg/kg, controls 0.80 ± 3.26) was 0.57 ± 2.10%. The “Surface area of the ulcer in %” value ([1]; orally, 2 × 10 mg/kg, controls 3.60 ± 3.33) was 2.13 ± 2.22%, the “Surface area of the ulcer in %” value ([1]; orally, 2 × 25 mg/kg, controls 0.80 ± 3.26) was 0.33 ± 1.59% and the “Surface area of the ulcer in %” value ([1]; orally, 2 × 50 mg/kg, controls 3.57 ± 3.59) was 1.30 ± 1.74%. The “Surface area of the ulcer in %” value ([1]; orally, 2 × 100 mg/kg, controls 3.60 ± 3.33) was 1.97 ± 1.44%, the “Surface area of the ulcer in %” value ([1]; orally, 2 × 200 mg/kg, controls 3.57 ± 3.59, p<0.02) was 0.27 ± 0.53% and the cholesterol ([2]; 25 mg/kg/die endoperitoneal, controls 64.4 ± 2.8, Nath diet 180.0 ± 15.8, p<0.01 vs Nath diet) was 108.3 ± 13.9. For the same compound, the triglycerides ([2]; 25 mg/kg/die endoperitoneal, controls 91.1 ± 13.5, Nath diet 135.2 ± 22.8) was 81.5 ± 13.3, the triglycerides ([2]; 50 mg/kg/die endoperitoneal, Nath diet 135.2 ± 22.8, p<0.01 vs Nath diet) was 49.1 ± 6.1 and the cholesterol ([2]; 50 mg/kg/die endoperitoneal, Nath diet 180.0 ± 15.8, p<0.001 vs Nath diet) was 101.8 ± 4.4. The “Ulcer scale (x ± Sx)” value (ulcer induced by aspirin; 2 × 10 mg/kg, p<0.001) was 4.83 ± 1.09, the “Ulcer scale (x ± Sx)” value (ulcer induced by aspirin; 2 × 100 mg/kg, p<0.05) was 8.92 ± 1.91 and the “mitigation of ulcerating effect of aspirin (in words)” value (ulcer induced by aspirin; both doses) was “considerably mitigates the ulcerating effect of aspirin”. For the same compound, the “Time of Quick (± E.S.)” value ([3]; controls 25.3 ± 0.2, p < 0.001) was 29.0 ± 0.4 minutes/10, the “Time of Howel (± E.S.)” value ([3]; controls 84.5 ± 1.6, p < 0.001) was 98.8 ± 0.9 minutes/10 and the “Time of Quick (Repetition) (± E.S.)” value ([3]; repetition, controls 25.8 ± 0.4, p < 0.001) was 29.3 ± 0.3 minutes/100. The “Time of Howel (Repetition) (± E.S.)” value ([3]; repetition, controls 95.0 ± 1.5, p < 0.001) was 118.8 ± 2.4 minutes/100, the “action on smooth musculature” value [4] was “clear prolonged action on muscle on the different kinds of smooth musculature” and the Cholesterolemia ([5]; controls 91.5 ± 6.6, alcohol 81.0 ± 4.6) was 56.3 ± 3.9. The Triglyceridemia ([5]; controls 97.8 ± 5.1, alcohol 169.0 ± 25.0) was 85.2 ± 13.5, the triglycerides ([6]; 25 mg/kg/die by mouth, Nath diet 134.9 ± 9.4, p<0.05 vs Nath diet) was 109.4 ± 6.9 and the cholesterol ([6]; 25 mg/kg/die by mouth, Nath diet 333.3 ± 29.9) was 380.2 ± 77.8. For the same compound, the cholesterol ([6]; 25 mg/kg/die endoperitoneal, controls 72.6 ± 4.3, Nath diet 333.3 ± 29.9, p<0.001 vs Nath diet) was 168.3 ± 26.8, the triglycerides ([6]; 25 mg/kg/die endoperitoneal, controls 96.9 ± 9.4, Nath diet 134.9 ± 9.4, p<0.05 vs Nath diet) was 91.9 ± 16.3 and the “Glycemia at fast (± E.S.)” value (Glycemia test at fast; controls 63.8 ± 4.1, p < 0.001) was 99.3 ± 2.7 mg/100 ml blood in toto. The “Glycemia at fast (Repetition) (± E.S.)” value (Glycemia test at fast; repetition, controls 81.1 ± 3.5, p < 0.01) was 121.4 ± 9.8 mg/100 ml blood in toto, the LD50 [7] was ~3000 mg/kg and the LD50 (mouse) was “about 3000 mg/kg”.
